Data on ten compounds can be found in ChEMBL document CHEMBL1201862, “PubChem BioAssay data set” (2004).

Each structure is given as a SMILES string.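 Assay format: 96-well plates, 48-hour exposure. At the GI50, growth is halved.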 Calls of active or inactive are those of the source. No stated cut-off is given here; in the data, active = GI50 up to about 1.1 µM and inactive = higher.

Holding throughout (test): growth of human tumour cells (NCI), 48 h
Experiment [1] deals with UACC-257.
Experiment [2] deals with SF-268.
Experiment [3] relates to MOLT-4.
Experiment [4] deals with COLO 205.
Experiment [5] deals with DU-145.
The subject of experiment [6] is HOP-62.
The subject of experiment [7] is IGROV-1.
In experiment [8] the test system is T47D.
In experiment [9] the test system is HCT-116.
The subject of experiment [10] is MCF7.
The subject of experiment [11] is SN12C.
Experiment [12] relates to MDA-MB-231.
Experiment [13] relates to 786-0.
For experiment [14], the system named is NCI/ADR-RES.
Experiment [15] has as its system OVCAR-3.
Experiment [16] has as its system BT-549.
Experiment [17] deals with HT-29.
In experiment [18] the test system is SR.
Experiment [19] deals with NCI-H522.
Experiment [20] deals with HL-60.

As to `CCOC(=O)c1nc2ccc(C(F)(F)F)cc2nc1Nc1ccc(Cl)c(Cl)c1`, the GI50 in [1] is > 100 µM (inactive); in experiment [2], > 100 µM (inactive); in [3], > 100 µM (inactive); in experiment [4] it was > 100 µM (inactive); in experiment [5], 70.6 µM (inactive); in experiment [6] it was 27.5 µM (inactive). The GI50 is > 100 µM (inactive) in experiment [7]; > 100 µM (inactive) in [8]; 64.7 µM (inactive) in experiment [9]; > 100 µM (inactive) in experiment [10]; > 100 µM (inactive) in experiment [11]; 60 µM (inactive) in experiment [12]. Besides, the GI50 in experiment [13] was 75.3 µM (inactive); in experiment [14], > 100 µM (inactive); in [15], 38.3 µM (inactive); in experiment [16], > 100 µM (inactive); in experiment [17] it was > 100 µM (inactive); in experiment [18] it was 75.3 µM (inactive). The GI50 in experiment [19] was > 100 µM (inactive); in experiment [20], 95.7 µM (inactive).
In the case of `Cc1ccc(C(=O)N(Cc2ccccc2)Cc2ccccc2)cc1/N=N/N(C)C`, the GI50 in experiment [1] is 6.75 µM (inactive); in experiment [2], 18.5 µM (inactive); in experiment [3], 26.4 µM (inactive); in [4], 21.5 µM (inactive); in experiment [5], 36.6 µM (inactive); in [6] it was 23.1 µM (inactive). Further, the GI50 in experiment [7] was 40.1 µM (inactive); in experiment [8], 14.8 µM (inactive); in [9], 8.39 µM (inactive); in [10] it was 24.2 µM (inactive); in experiment [11], 14.6 µM (inactive); in [12], 22.9 µM (inactive). In addition, the GI50 is 22.2 µM (inactive) in [13]; 22.5 µM (inactive) in experiment [14]; 4.49 µM (inactive) in experiment [15]; 18.5 µM (inactive) in experiment [16]; 7.6 µM (inactive) in experiment [17]; 27.7 µM (inactive) in experiment [18]. For the same compound, the GI50 in [19] was 9.44 µM (inactive); in [20], 22.6 µM (inactive).
For `COC(=O)C1(C(=O)OC)Cc2ccc(OC)cc2C2=C1C(=O)c1ccccc1C2=O`, the GI50 was 2.48 µM (inactive) in experiment [1]; 6.67 µM (inactive) in experiment [2]; 1.53 µM (inactive) in experiment [3]; 20.3 µM (inactive) in experiment [4]; 16.5 µM (inactive) in [5]; 7.08 µM (inactive) in experiment [6]. In addition, the GI50 in [7] was 2.77 µM (inactive); in experiment [8] it was 1.51 µM (inactive); in [9], 3.24 µM (inactive); in experiment [10] it was 2.55 µM (inactive); in experiment [11], 4.42 µM (inactive); in experiment [12], 1.99 µM (inactive). The GI50 in experiment [13] is 4.75 µM (inactive); in experiment [14] it was 2.69 µM (inactive); in [15], 0.282 µM (active); in [16] it was 19.1 µM (inactive); in experiment [17] it was 14.4 µM (inactive); in experiment [18], 3.54 µM (inactive). Also, the GI50 in experiment [19] is 3.45 µM (inactive); in experiment [20], 2.24 µM (inactive).
Take `COc1ccc(OC)c(-c2cn3c(n2)sc2ccccc23)c1`: the GI50 in experiment [1], in experiment [2], in [3], in experiment [4], in experiment [5] and in experiment [6] was > 100 µM (inactive) throughout. Also, the GI50 in experiment [7] is > 100 µM (inactive); in experiment [8], > 100 µM (inactive); in experiment [9], > 100 µM (inactive); in experiment [10], 3.44 µM (inactive); in experiment [11] it was > 100 µM (inactive); in experiment [12], > 100 µM (inactive). For the same compound, the GI50 in experiment [13] was 58.5 µM (inactive); in experiment [14], > 100 µM (inactive); in [15], > 100 µM (inactive); in [16], > 100 µM (inactive); in experiment [17], 8.26 µM (inactive); in experiment [18] it was > 100 µM (inactive). The GI50 in experiment [19] and in experiment [20] was > 100 µM (inactive) throughout.
For `CCOC(=O)N1CCc2cc(OC)c(OC)c3c2c1cc1cc(OC)c(OC)cc13`, the GI50 in experiment [1] is 12.1 µM (inactive); in experiment [2] it was 4.51 µM (inactive); in experiment [3], 5.32 µM (inactive); in [4], 0.787 µM (active); in [5], 3.59 µM (inactive); in experiment [6] it was 3.27 µM (inactive). Further, the GI50 in experiment [7] is 4.57 µM (inactive); in [8], 2.79 µM (inactive); in experiment [9], 1.22 µM (inactive); in [10] it was 1.1 µM (active); in [11] it was 4.62 µM (inactive); in [12], 5.96 µM (inactive). Besides, the GI50 in [13] was 2.53 µM (inactive); in [14] it was 0.655 µM (active); in [15], 0.984 µM (active); in experiment [16], 0.577 µM (active); in [17], 0.492 µM (active); in experiment [18], 0.807 µM (active). The figures for the GI50 in experiment [19] and in experiment [20] were 0.618 µM (active) and 1.32 µM (inactive), respectively.
With `Cc1cc(-c2cc(C(C)(C)C)c(O)c(C(C)(C)C)c2)c(C)cc1-c1cc(C(C)(C)C)c(O)c(C(C)(C)C)c1`, the GI50 in experiment [1], in experiment [2], in experiment [3], in [4], in experiment [5] and in experiment [6] was > 100 µM (inactive) in each case. Further, the GI50 in [7], in [8], in [9], in [10], in experiment [11] and in experiment [12] was > 100 µM (inactive) throughout. Also, the GI50 in experiment [13] is > 100 µM (inactive); in [14] it was > 100 µM (inactive); in experiment [15] it was > 100 µM (inactive); in [16] it was > 100 µM (inactive); in experiment [17], > 100 µM (inactive); in experiment [18], 41.2 µM (inactive). Also, the GI50 in [19] and in [20] was > 100 µM (inactive) throughout.
As for `O/N=N/c1ccc(Sc2ccc(/N=N/O)cn2)nc1`, the GI50 in [1], in experiment [2], in experiment [3], in [4], in experiment [5] and in experiment [6] was > 100 µM (inactive) each time. Moreover, the GI50 in experiment [7], in experiment [8], in [9], in [10], in [11] and in experiment [12] was > 100 µM (inactive) in each case. Also, the GI50 in experiment [13], in experiment [14], in experiment [15], in experiment [16], in experiment [17] and in [18] was > 100 µM (inactive) throughout. The GI50 in experiment [19] and in experiment [20] was > 100 µM (inactive) each time.
For `CC(=N\N)/C(C)=N/N=C(C)/C(C)=N/N=C(C)/C(C)=N/N=C(C)/C(C)=N/N`, the GI50 is > 100 µM (inactive) in experiment [1]; > 100 µM (inactive) in [2]; 20.9 µM (inactive) in experiment [3]; > 100 µM (inactive) in experiment [4]; > 100 µM (inactive) in experiment [5]; > 100 µM (inactive) in experiment [6]. Besides, the GI50 in experiment [7], in experiment [8], in experiment [9], in [10], in experiment [11] and in experiment [12] was > 100 µM (inactive) in each case. Moreover, the GI50 is > 100 µM (inactive) in [13]; > 100 µM (inactive) in [14]; > 100 µM (inactive) in experiment [15]; 97.1 µM (inactive) in experiment [16]; > 100 µM (inactive) in experiment [17]; 0.248 µM (active) in experiment [18]. In addition, the GI50 in experiment [19] and in experiment [20] was > 100 µM (inactive) each time.
For `CC1=NN(c2nc(N)nc(/C(C#N)=C\c3ccc(-c4ccc([N+](=O)[O-])cc4)o3)n2)C(C)(C)C1`, the GI50 in experiment [1] was > 100 µM (inactive); in experiment [2], 65.5 µM (inactive); in [3], > 100 µM (inactive); in [4], > 100 µM (inactive); in [5], > 100 µM (inactive); in [6], 1.78 µM (inactive). For the same compound, the GI50 in experiment [7] was > 100 µM (inactive); in experiment [8] it was > 100 µM (inactive); in experiment [9], > 100 µM (inactive); in experiment [10], > 100 µM (inactive); in experiment [11], > 100 µM (inactive); in experiment [12], 27.5 µM (inactive). Also, the GI50 in experiment [13] was > 100 µM (inactive); in experiment [14], > 100 µM (inactive); in experiment [15], > 100 µM (inactive); in experiment [16] it was > 100 µM (inactive); in experiment [17], > 100 µM (inactive); in experiment [18], 11.1 µM (inactive). The GI50 in experiment [19] was > 100 µM (inactive); in experiment [20], 17.1 µM (inactive).
Consider `COc1c2c(cc3occ(-c4ccc(CC=C(C)C)cc4)c(=O)c13)OC(C)(C)C=C2`, for which the GI50 in experiment [1] is 39.4 µM (inactive); in [2], > 100 µM (inactive); in experiment [3], 10.7 µM (inactive); in experiment [4] it was 43.4 µM (inactive); in [5], 84.7 µM (inactive); in experiment [6] it was > 100 µM (inactive). Also, the GI50 was > 100 µM (inactive) in experiment [7]; 16.5 µM (inactive) in experiment [8]; 26.4 µM (inactive) in experiment [9]; 31 µM (inactive) in experiment [10]; 84.1 µM (inactive) in experiment [11]; > 100 µM (inactive) in experiment [12]. The GI50 in experiment [13] was 84.1 µM (inactive); in [14] it was 18.2 µM (inactive); in experiment [15] it was 10.3 µM (inactive); in experiment [16], 76.2 µM (inactive); in experiment [17] it was 26.9 µM (inactive); in experiment [18] it was 8.55 µM (inactive). Also, the results for the GI50 in experiment [19] and in experiment [20] were 13.9 µM (inactive) and 10.3 µM (inactive), respectively.
